Data from patent publication US7790762B2, “Compounds and methods for thiol-containing compound efflux and cancer treatment” (National Jewish Health, priority 2002, dated 2010).
Marks after values point to notes of the source that are not given here.

What was measured:
A549 cells [1] = assay: Intracellular GSH levels by HPLC-EC in A549 cells; type: cell-based, human
Protocol: (§1) Cell lines and culture conditions. Human lung epithelial cancer (A549), human leukemia HL-60 and human prostate (PC-3) tumor cells were purchased from ATCC (Manassas, Va.). A549 and PC-3 cells were grown in Ham's F12 medium (F12) and Kaighn's modification of Ham's F12 medium (F12K) with 2 mM L-glutamine (ATCC), respectively, supplemented with 10% fetal bovine serum (FBS) and 5% pen/strep (10,000 unit, Cellgro). HL-60 cells were grown in Iscove's modified Dulbecco's medium with 4 mM L-glutamine (ATCC) supplemented with 20% FBS and 5% pen/strep. Cell were grown in T-75 flask at 37° C. and 5% CO2 air atmosphere and in 24-well plates for GSH levels and LDH release measurements.
(§2) Intracellular levels of GSH. Intracellular GSH levels can be determined by HPLC-EC. Cultured cells from 24-well plates were washed once with 1 ml of PBS and then re-suspended in 0.5 ml of distilled water with 40 μM of digitonin (2 mM stock solution in DMSO) for 30 min at room temperature. Then, 50 μl of 10% meta-phosphoric acid were added (1% final concentration), the samples were sonicated for 2 min, centrifuged at 20,000 g for 10 min, and 0.2 ml of supernatant placed in vials for HPLC analysis. […] The flow rate was […]. The retention time for GSH in these conditions was 7.5 min. The HPLC instrument was from ESA, Inc. (Chelmsford, Mass.), equipped with an autosampler (model 540) and a Coul array detector (model 5600A). The potential applied was +0.75 V vs. H/Pd electrode, and the injection volume 5 μl.

HL-60 cells [2] = assay: Intracellular GSH levels by HPLC-EC in HL-60 cells; type: cell-based, human; details: for activity at 75 µM / activity at 25 µM: Homo sapiens, read-out: Int. GSH % con.; for activity at 75 µM / Int. GSH % con. / activity at 25 µM: 24 hours treatment; for effect on intracellular GSH (words): HL-60 cells; for activity at 25 µM: HL-60, 25 μM
Protocol: as §1, §2

PC-3 cells [3] = assay: Intracellular GSH levels by HPLC-EC in PC-3 cells; type: cell-based, human
Protocol: as §1, §2

A549 cells [4] = assay: Cytotoxicity as LDH release in A549 cells; type: cell-based, human; details: A549, 75 μM, 48 hours treatment; for LDH release, % of control at 75 µM: Homo sapiens, read-out: LDH rel. % con.
Protocol: as §1
(§3) Assessment of cytotoxicity. In one exemplary method, membrane integrity of A549, HL-60 and PC-3 cells was used as an index of drug-induced cytotoxicity, and was assessed by monitoring the release of cytosolic lactate dehydrogenase (LDH). LDH activity was measured in the culture medium and cell lysates (50 mM HEPES, Triton X-100 0.5%, pH 7) using a plate reader format as previously described (41). Briefly, 5 μl of cell culture supernatant and lysates were incubated with 0.24 mM NADH in a Tris/NaCl pH 7.2 buffer in 96-well plates for 5 min at 25° C. The reaction was started by the addition of 9.8 mM pyruvate and the consumption of NADH followed at 340 nm for 5 min at 30° C. Percent LDH release was calculated by the following: (supernatant LDH/supernatant LDH+lysate LDH)×100.

HL-60 cells [5] = assay: Cytotoxicity as LDH release in HL-60 cells; type: cell-based, human; details: 48 hours treatment; for LDH release, % of control at 50 µM / LDH rel. % con.: HL-60, 50 μM
Protocol: as §1, §3

PC-3 cells [6] = assay: Cytotoxicity as LDH release in PC-3 cells; type: cell-based, human; details: PC-3, 50 μM, 48 hours treatment; for LDH release, % of control at 50 µM: Homo sapiens, read-out: LDH rel. % con.
Protocol: as §1, §3

epithelial cells = assay: Effects of compounds on extracellular GSH transport (Table 3); type: cell-based
[7] = Homo sapiens, A549, 75 μM, 24 hours treatment, read-out: Int. GSH % con.
[8] = Homo sapiens, read-out: LDH rel. % con.
[9] = A549, 75 μM, 24 hours treatment
[10] = Homo sapiens, PC-3, 25 μM, 24 hours treatment, read-out: Int. GSH % con.
[11] = Epithelial cell, read-out: % Increase Over Control (extracellular GSH)

Structure (SMILES): O=c1c(O)c(-c2ccc(O)cc2O)oc2cc(O)cc(O)c12 [Morin]
- activity at 75 µM (A549 cells [1]; [7]): 72%
- activity at 75 µM (HL-60 cells [2]; HL-60, 75 μM): 86%
- activity at 50 µM (PC-3 cells [3]; Homo sapiens, PC-3, 50 μM, 24 hours treatment, read-out: Int. GSH % con.): 125%
- effect on intracellular GSH (words) (PC-3 cells [3]; PC-3 cells, 50-75 μM): stimulated an increase in intracellular GSH
- LDH release, % of control at 75 µM (A549 cells [4]): 112%
- LDH release, % of control at 50 µM (HL-60 cells [5]; [8]): 97%
- LDH release, % of control at 50 µM (PC-3 cells [6]): 80%

Structure (SMILES): O=c1c(O)c(-c2cc(O)c(O)c(O)c2)oc2cc(O)cc(O)c12 [Myricetin]
- Int. GSH % con. (A549 cells [1]; [9]): 55 % con.
- Int. GSH % con. (HL-60 cells [2]; HL-60, 75 μM): 27 % con.
- Int. GSH % con. (PC-3 cells [3]; PC-3, 50 μM, 24 hours treatment): 111 % con.
- LDH rel. % con. (A549 cells [4]): 206 % con.
- LDH rel. % con. (HL-60 cells [5]): 139 % con.
- LDH rel. % con. (PC-3 cells [6]): 93 % con.

Structure (SMILES): O=C1CC(c2ccc(O)cc2)Oc2cc(O)cc(O)c21 (stereo not shown) [Naringenin, 4′,5,7-trihydroxyflavanone]
- activity at 25 µM (A549 cells [1]; Homo sapiens, A549, 25 μM, 24 hours treatment, read-out: Int. GSH % con.): 17%
- activity at 75 µM (HL-60 cells [2]; HL-60, 75 μM): 73%
- activity at 25 µM (PC-3 cells [3]; [10]): 83%
- LDH release, % of control at 75 µM (A549 cells [4]): 130%
- LDH release, % of control at 50 µM (HL-60 cells [5]; [8]): 95%
- LDH release, % of control at 50 µM (PC-3 cells [6]): 107%

Structure (SMILES): CCCOC(=O)c1cc(O)c(O)c(O)c1 [Propyl Gallate, 3,4,5-trihydroxy-benzoic acid propyl ester]
- activation at 50 µM (epithelial cells; [11]): 136%

Structure (SMILES): O=c1c(O)c(-c2ccc(O)c(O)c2)oc2cc(O)cc(O)c12 [Quercetin]
- Intracellular GSH levels, % compared to control (A549 cells [1]; A549, 25 μM, 4 h): 51.0 ± 0.7%
- Int. GSH % con. (A549 cells [1]; A549, 25 μM, 24 hours treatment): 36 % con.
- Int. GSH % con. (HL-60 cells [2]; HL-60, 50 μM): 94 % con.
- Int. GSH % con. (PC-3 cells [3]; PC-3, 25 μM, 24 hours treatment): 95 % con.
- LDH rel. % con. (A549 cells [4]): 175 % con.
- LDH rel. % con. (HL-60 cells [5]): 157 % con.
- LDH rel. % con. (PC-3 cells [6]): 80 % con.

Structure (SMILES): Oc1ccc(C=Cc2cc(O)cc(O)c2)cc1 [Resveratrol]
- activity at 75 µM (A549 cells [1]; [7]): 64%
- effect on intracellular GSH (words) (HL-60 cells [2]): found effective in HL-60 cells
- activity at 25 µM (HL-60 cells [2]): 61%
- activity at 25 µM (PC-3 cells [3]; [10]): 108%
- LDH release, % of control at 75 µM (A549 cells [4]): 249%
- LDH release, % of control at 50 µM (HL-60 cells [5]; [8]): 143%
- LDH release, % of control at 50 µM (PC-3 cells [6]): 135%

Structure (SMILES): C=C(C)[C@H]1Cc2c(ccc3c2O[C@@H]2COc4cc(OC)c(OC)cc4[C@@H]2C3=O)O1 [Rotenone, reference compound]
- activity at 50 µM (A549 cells [1]; Homo sapiens, A549, 50 μM, 24 hours treatment, read-out: Int. GSH % con.): 53%
- effect on intracellular GSH (words) (HL-60 cells [2]): relatively effective for depleting GSH
- activity at 25 µM (HL-60 cells [2]): < 5%
- activity at 25 µM (PC-3 cells [3]; [10]): 74%
- LDH release, % of control at 75 µM (A549 cells [4]): 170%
- LDH release, % of control at 25 µM (HL-60 cells [5]; Homo sapiens, HL-60, 25 μM, read-out: LDH rel. % con.): 421%
- LDH release, % of control at 50 µM (PC-3 cells [6]): 180%

Structure (SMILES): C[C@@H]1O[C@@H](OC[C@H]2O[C@@H](Oc3c(-c4ccc(O)c(O)c4)oc4cc(O)cc(O)c4c3=O)[C@H](O)[C@@H](O)[C@@H]2O)[C@H](O)[C@H](O)[C@H]1O [Rutin]
- % Increase Over Control (extracellular GSH) (epithelial cells; 100 μM): 160 ^b %
- Int. GSH % con. (A549 cells [1]; [9]): 86 % con.
- Int. GSH % con. (HL-60 cells [2]; HL-60, 75 μM): 98 % con.
- LDH rel. % con. (A549 cells [4]): 187 % con.
- LDH rel. % con. (HL-60 cells [5]): 98 % con.
- LDH rel. % con. (PC-3 cells [6]): 95 % con.

Structure (SMILES): O=C(O)c1cc(/N=N/c2ccc(S(=O)(=O)Nc3ccccn3)cc2)ccc1O [Sulfasalazine, reference compound]
- activation at 50 µM (epithelial cells; [11]): 211%

Structure (SMILES): Nc1ccc(C(=O)O)c(O)c1 [p-Aminosalicylic Acid, 4-amino-2-hydroxybenzoic acid, reference compound]
- activation at 100 µM (epithelial cells; Epithelial cell, 100 μM, read-out: % Increase Over Control (extracellular GSH)): 414%
